Results reported in ChEMBL document CHEMBL1201862, “PubChem BioAssay data set” (2004).
Active and inactive are the calls of the source.

Assays:
[1] = biological target: T1, DNA repair protein RAD52 homolog (Homo sapiens, UniProt P43351); type: functional, biochemical
T1 sequence (P43351 whole entry): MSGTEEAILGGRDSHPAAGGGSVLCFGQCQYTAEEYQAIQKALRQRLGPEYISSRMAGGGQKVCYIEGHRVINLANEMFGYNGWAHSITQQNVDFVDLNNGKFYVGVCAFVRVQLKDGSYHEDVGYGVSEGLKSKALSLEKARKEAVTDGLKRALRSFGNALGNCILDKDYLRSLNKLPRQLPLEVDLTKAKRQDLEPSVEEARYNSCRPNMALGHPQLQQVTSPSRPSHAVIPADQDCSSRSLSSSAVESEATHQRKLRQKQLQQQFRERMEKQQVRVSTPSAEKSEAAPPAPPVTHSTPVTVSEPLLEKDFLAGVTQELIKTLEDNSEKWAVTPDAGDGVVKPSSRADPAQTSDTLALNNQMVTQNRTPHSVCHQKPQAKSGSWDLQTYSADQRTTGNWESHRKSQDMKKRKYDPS

[2] = A cytotoxicity screen of small molecule inhibitors of the PhoP region in Salmonella typhi identified in the primary screen. [Related pubchem assays: 1850, 1864, 1985 ]; type: functional
Cytochrome P450 3A4 = Cytochrome P450 3A4 (Homo sapiens, UniProt P08684); details: Potency;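 also: confirmatory qHTS run detecting inhibitors and substrates of CYP3A4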
[3] = viability of HCT116 lacking mutant beta-catenin – cell-based, human colon tumor, dose response (AID 1045); type: functional;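 also: HCT116 colon tumor cells with beta catenin knocked out; cells exposed to compound for 60 hours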
[4] = Luminescence Cell-Based Dose Retest to Confirm Inhibitors of Cancer Stem Cells. [Related pubchem assays (depositor defined):AID2717, AID2721]; type: functional; details: Homo sapiens
[5] = HepG2 cell cytotoxicity, dose response, cytotoxicity control for non-replicating M. tuberculosis project (AID 489018); type: functional; details: Mycobacterium tuberculosis
[6] = THP-1 cell cytotoxicity, dose response, cytotoxicity control for non-replicating M. tuberculosis project (AID 489025); type: functional
[7] = Vero E6 cell cytotoxicity, dose response, cytotoxicity control for non-replicating M. tuberculosis project, secondary assay (AID 492998); type: functional, VeroE6; details: Vero C1008
cells = type: functional
[8] = viability of PTEN-deleted HCT116 cells – cell-based, HCT116 PTEN knockout, dose response (AID 1047); type: functional;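 also: HCT116 colon tumor cells with PTEN knocked out; cells exposed to compound for 60 hours before readout; potency for loss of cell viability measured by luminescence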
[9] = biological target: Induced myeloid leukemia cell differentiation protein Mcl-1 (Homo sapiens, UniProt Q07820); type: functional
INS1 = assay: INS-1E survival protection against cytokine death – cell-based, luminescence, retest, dose response (AID 449756); type: functional; details: Rattus norvegicus;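 also: cell death triggered by IL-1 beta plus TNF-alpha plus IFN-gamma mixture; protective hits raise ATP signal compared with cytokine alone wells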
[10] = biological target: T2, Apoptotic protease-activating factor 1 (Homo sapiens, UniProt O14727); type: functional
T2 sequence (O14727 whole entry): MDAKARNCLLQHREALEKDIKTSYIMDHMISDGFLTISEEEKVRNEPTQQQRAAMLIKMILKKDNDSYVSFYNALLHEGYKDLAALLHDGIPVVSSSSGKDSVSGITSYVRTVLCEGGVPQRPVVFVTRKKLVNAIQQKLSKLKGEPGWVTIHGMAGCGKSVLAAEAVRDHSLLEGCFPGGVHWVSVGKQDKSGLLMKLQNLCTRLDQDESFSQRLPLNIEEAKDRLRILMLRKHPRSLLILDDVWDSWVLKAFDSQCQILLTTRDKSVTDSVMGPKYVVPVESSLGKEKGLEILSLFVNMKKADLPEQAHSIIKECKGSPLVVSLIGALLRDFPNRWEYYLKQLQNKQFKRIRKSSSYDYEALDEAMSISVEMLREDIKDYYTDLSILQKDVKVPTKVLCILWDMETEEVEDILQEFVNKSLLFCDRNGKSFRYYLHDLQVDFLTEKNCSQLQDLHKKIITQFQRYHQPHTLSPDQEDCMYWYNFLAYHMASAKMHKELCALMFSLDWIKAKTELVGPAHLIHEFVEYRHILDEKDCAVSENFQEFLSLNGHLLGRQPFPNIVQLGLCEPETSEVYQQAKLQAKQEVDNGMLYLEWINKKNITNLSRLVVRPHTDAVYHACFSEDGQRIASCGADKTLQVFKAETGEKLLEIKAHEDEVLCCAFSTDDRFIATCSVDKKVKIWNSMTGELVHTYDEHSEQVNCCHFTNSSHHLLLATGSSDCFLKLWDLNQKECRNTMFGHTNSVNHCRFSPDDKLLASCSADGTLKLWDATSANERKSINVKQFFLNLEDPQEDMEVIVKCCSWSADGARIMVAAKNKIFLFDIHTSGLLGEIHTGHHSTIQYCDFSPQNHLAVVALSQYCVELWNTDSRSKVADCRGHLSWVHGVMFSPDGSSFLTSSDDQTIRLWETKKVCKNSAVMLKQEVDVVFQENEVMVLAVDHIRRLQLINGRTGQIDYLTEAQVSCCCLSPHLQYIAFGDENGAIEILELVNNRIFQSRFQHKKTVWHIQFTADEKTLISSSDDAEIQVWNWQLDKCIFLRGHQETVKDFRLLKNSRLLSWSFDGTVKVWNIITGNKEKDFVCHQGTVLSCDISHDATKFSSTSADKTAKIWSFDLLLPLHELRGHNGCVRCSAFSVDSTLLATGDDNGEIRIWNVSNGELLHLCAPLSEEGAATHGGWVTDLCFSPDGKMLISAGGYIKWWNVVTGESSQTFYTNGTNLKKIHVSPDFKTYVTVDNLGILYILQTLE

[11] = microbe, parasite or virus in culture; type: functional; details: Mycobacterium tuberculosis
[12] = NIH3T3 cell viability loss – ATP luminescence, mouse fibroblasts, counter-screen, dose response (AID 2010); type: functional, cell-based;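 also: cells exposed to compound for about 90 hours before reading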
Nonstructural protein 1 = Nonstructural protein 1 (Influenza A virus, UniProt Q194T2); type: functional, Influenza A virus (A/California/07/2009(H1N1))
[13] = Luminescence Cell-Based Dose Response HTS to Identify Inhibitors of 5'UTR Stem-Loop Driven Prion Protein mRNA Translation in H4 Neuroglioblastoma Cells. [Related pubchem assays: 1827 (Project Summary), 1813 (Primary HTS)]; type: functional
[14] = alpha-synuclein stem-loop luciferase translation blockers – H4 neuroglioma cells, luminescence, confirmation (AID 1988); type: functional, cell-based
[15] = luciferase reporter signal suppression in cells – H4 neuroglioma cells, luminescence, dose response (AID 1990); type: functional, cell-based
[16] = Trypanosoma cruzi growth suppression in host cells – NIH3T3 host cells, beta-gal luminescence, confirmation (AID 2044); type: functional, cell-based;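 also: intracellular parasites grown in NIH/3T3 mouse fibroblasts as host cells; luminescent beta-galactosidase reporter signal from transgenic T. cruzi replicating inside host cells; inhibitors lower the luminescence signal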

Sequence of Cytochrome P450 3A4 (P08684 whole entry): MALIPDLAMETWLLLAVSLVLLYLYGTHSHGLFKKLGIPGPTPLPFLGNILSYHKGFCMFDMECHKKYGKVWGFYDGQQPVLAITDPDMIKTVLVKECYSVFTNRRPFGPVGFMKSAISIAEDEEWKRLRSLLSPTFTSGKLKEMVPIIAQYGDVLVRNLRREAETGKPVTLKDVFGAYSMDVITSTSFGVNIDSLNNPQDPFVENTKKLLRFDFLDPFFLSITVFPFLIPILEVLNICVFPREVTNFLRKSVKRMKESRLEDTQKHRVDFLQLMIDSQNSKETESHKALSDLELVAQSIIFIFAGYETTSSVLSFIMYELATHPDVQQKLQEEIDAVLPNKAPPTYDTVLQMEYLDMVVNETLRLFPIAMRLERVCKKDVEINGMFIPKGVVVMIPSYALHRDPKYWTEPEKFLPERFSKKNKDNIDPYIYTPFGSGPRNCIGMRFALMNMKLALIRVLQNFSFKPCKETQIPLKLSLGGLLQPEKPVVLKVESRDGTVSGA
Sequence of Induced myeloid leukemia cell differentiation protein Mcl-1 (Q07820 whole entry): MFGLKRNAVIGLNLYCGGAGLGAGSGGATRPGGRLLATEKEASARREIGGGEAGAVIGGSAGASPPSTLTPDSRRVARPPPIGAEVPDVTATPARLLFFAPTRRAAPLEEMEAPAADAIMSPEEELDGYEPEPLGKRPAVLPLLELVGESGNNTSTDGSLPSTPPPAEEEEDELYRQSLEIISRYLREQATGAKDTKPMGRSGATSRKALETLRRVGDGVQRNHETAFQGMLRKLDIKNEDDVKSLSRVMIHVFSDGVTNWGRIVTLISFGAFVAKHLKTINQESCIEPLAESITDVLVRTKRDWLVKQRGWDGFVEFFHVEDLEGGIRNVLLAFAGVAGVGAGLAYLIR
Sequence of Nonstructural protein 1 (Q194T2 whole entry): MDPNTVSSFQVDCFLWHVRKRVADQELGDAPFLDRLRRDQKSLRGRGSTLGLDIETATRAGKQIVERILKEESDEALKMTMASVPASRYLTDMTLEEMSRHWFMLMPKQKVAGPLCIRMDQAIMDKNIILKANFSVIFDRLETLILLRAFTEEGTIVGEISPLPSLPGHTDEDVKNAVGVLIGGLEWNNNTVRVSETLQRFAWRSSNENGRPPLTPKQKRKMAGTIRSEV

With `OC(CN1CCCC1)Cn1ccc2ccccc21` (stereo not drawn) as the molecule, how does the AC50 [1] read?
The AC50 was 16.1 µM (active).

Which EC50 [2] does the source give for `O=[N+]([O-])c1cccc(NNS(=O)(=O)c2ccccc2F)c1` here?
Its EC50 is > 50 µM (active).

For `CN1C[C@@H](CO)C=C2c3cccc4[nH]cc(c34)CC21` (stereo partly drawn), which AC50 (Cytochrome P450 3A4) is on record?
The AC50 was 31.6 µM (inconclusive).

With `COc1cc(CNC(C)(C)CO)cc(Br)c1OCc1ccc(Cl)cc1Cl` as the molecule, how does the EC50 [3] read?
Its EC50 is 7.94 µM (active).

What about the AC50 [4] of the same molecule?
The AC50 was 5.33 µM (active).

And the CC50 [5]?
Its CC50 is 12.5 µM (active).

What about the CC50 [6] of the same molecule?
The CC50 was 19.4 µM (active).

What about the AC50 [1] of the same molecule?
Its AC50 is 18.5 µM (active).

And the CC50 [7]?
Its CC50 is 13.8 µM (active).

What about the IC50 (cells) of the same molecule?
The IC50 was 16.7 µM (active).

And the EC50 [8]?
Its EC50 is 7.38 µM (active).

With `Oc1ccc(N=Nc2cccc(Cl)c2)cc1/C=N/c1ccc(N2CCOCC2)cc1` as the molecule, how does the IC50 [9] read?
Its IC50 is 5.14 µM (not active).

Which AC50 (Cytochrome P450 3A4) does the source give for `COC(=O)CNC(=O)C1(C)C=CC2(CCCCC2)N1C(=O)OC` (stereo not drawn) here?
The AC50 was 31.6 µM (inconclusive).

With `CCCOc1cc(NCc2ccccc2)c2ncn(C(C)C)c2c1` as the molecule, how does the AC50 (INS1) read?
Its AC50 is 8.46 µM (active).

What about the IC50 [10] of the same molecule?
Its IC50 is 5.67 µM (active).

For `Clc1cccc(/C=N\Nc2nccs2)c1`, which EC50 [2] is on record?
Its EC50 is > 50 µM (active).

And the IC50 (cells)?
Its IC50 is 12.7 µM (active).

Which IC50 [10] does the source give for `c1cc2c3c(cccc3c1)NC1(CCC3(CC1)Nc1cccc4cccc(c14)N3)N2` here?
The IC50 was 7.06 µM (active).

What about the CC50 [11] of the same molecule?
Its CC50 is 20 µM (active).

For `CC(C)CCC(C)N/C=C1/C(=O)N(Cc2ccccc2)C(=O)c2ccccc21` (stereo not drawn), which IC50 [10] is on record?
Its IC50 is 7.34 µM (active).

With `Cc1sc(NC(=O)c2sc3nc4c(C)cccc4cc3c2N)c(C#N)c1C` as the molecule, how does the IC50 [9] read?
The IC50 was 1.44 µM (active).

With `COc1cc(CNCCCN2CCOCC2)c(Br)cc1OCC(=O)Nc1ccccc1C` as the molecule, how does the EC50 [2] read?
Its EC50 is > 50 µM (active).

With `COCc1cc(CN2CCCC2)c(O)c2ncccc12` as the molecule, how does the EC50 [12] read?
Its EC50 is 4.17 µM (active).

What about the IC50 (Nonstructural protein 1) of the same molecule?
The IC50 was 2.31 µM (active).

What about the EC50 [13] of the same molecule?
Its EC50 is 6.21 µM (active).

What about the EC50 [14] of the same molecule?
The EC50 was 8.4 µM (active).

And the EC50 [15]?
Its EC50 is 11.4 µM (active).

And the EC50 [16]?
The EC50 was 3.07 µM (active).
